This note sets out measurements from PubChem BioAssay AID330 (DTP/NCI, 2004).

“And” between values parts separate entries of the source, which are not always exact repeats. Equal entries are not always repeated. Inconclusive results and toxic doses are left out.

In the experiment the test system is P388 leukemia ip, CD2F1 mice, survival T/C. In words: NCI In Vivo Anticancer Drug Screen. Data for tumor model P388 Leukemia (intraperitoneal) in CD2F1 (CDF1) mice. The following applies: endpoint: median survival time, higher = longer survival. Summed up: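 Mice carrying the transplanted tumor received test compound or vehicle. Survival was recorded in each group, and the value is the treated-group measurement divided by that of the vehicle-treated control group.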

The mark [1] stands for this setting: dose: 60.0 mg/kg/injection, schedule: Q01DX005 (ip), vehicle: Klucel (hydroxypropylcellulose) (HPC).
Setting [2] is: dose: 120.0 mg/kg/injection, schedule: Q01DX005 (ip), vehicle: Klucel (hydroxypropylcellulose) (HPC).
Setting [3] is: dose: 240.0 mg/kg/injection, schedule: Q01DX005 (ip), vehicle: Klucel (hydroxypropylcellulose) (HPC).
Setting [4] is: dose: 50.0 mg/kg/injection, schedule: Q01DX009 (ip), vehicle: saline with Tween-80.
The mark [5] stands for this setting: dose: 100.0 mg/kg/injection, schedule: Q01DX009 (ip), vehicle: saline with Tween-80.
Setting [6] is: dose: 200.0 mg/kg/injection, schedule: Q01DX009 (ip), vehicle: saline with Tween-80.

Turning to `C=C(C)C12OC3(c4ccccc4)OC1C1C4OC4(CO)C(O)C4(O)C(=O)C(C)=CC4C1(O3)C(C)C2OC(=O)c1ccccc1` (centres undefined), the T/C (dose: 0.1 mg/kg/injection, schedule: Q01DX009 (ip), vehicle: saline) was 91 % of control; the T/C (dose: 0.2 mg/kg/injection, schedule: Q01DX009 (ip), vehicle: saline) was 100 % of control; the T/C (dose: 0.4 mg/kg/injection, schedule: Q01DX009 (ip), vehicle: saline) was 90 % of control; the T/C (dose: 0.8 mg/kg/injection, schedule: Q01DX009 (ip), vehicle: saline) was 96 % of control.
For the molecule `CC(=O)Nc1ccc(S(=O)(=O)Nc2c(-c3ccccc3)[nH]c(C)c2C(C)=O)cc1`, the T/C runs as follows: (dose: 60.0 mg/kg/injection, schedule: Q01DX005 (ip), vehicle: saline with Tween-80) 102 % of control; (dose: 120.0 mg/kg/injection, schedule: Q01DX005 (ip), vehicle: saline with Tween-80) 102 % of control; (dose: 240.0 mg/kg/injection, schedule: Q01DX005 (ip), vehicle: saline with Tween-80) 98 % of control.
Take `COc1ccc2c(c1)OCCCO/N=C(\c1ccccc1)c1ccc(OC)cc1OCCCO/N=C/2c1ccccc1` (tested in a mixture with another compound): the T/C runs as follows: (dose: 50.0 mg/kg/injection, schedule: Q01DX005 (ip), vehicle: saline with Tween-80) 103 % of control; (dose: 100.0 mg/kg/injection, schedule: Q01DX005 (ip), vehicle: saline with Tween-80) 103 % of control; (dose: 200.0 mg/kg/injection, schedule: Q01DX005 (ip), vehicle: saline with Tween-80) 98 % of control.
For `CCCCCCCCCCCCCCCCCCOC(=O)C(N)CCCCN` (centres undefined), the T/C reads like this: (dose: 15.0 mg/kg/injection, schedule: Q01DX005 (ip), vehicle: saline) 96 % of control; (dose: 30.0 mg/kg/injection, schedule: Q01DX005 (ip), vehicle: saline) 110 % of control; (dose: 60.0 mg/kg/injection, schedule: Q01DX005 (ip), vehicle: saline) 109 % of control and 111 % of control.
For `O=C1C(=O)c2ccccc2C(O)=C1Sc1ccc2ccccc2c1`, the T/C (dose: 3.13 mg/kg/injection, schedule: Q01DX009 (ip), vehicle: saline with Tween-80) was 100 % of control; the T/C (dose: 6.25 mg/kg/injection, schedule: Q01DX009 (ip), vehicle: saline with Tween-80) was 99 % of control; the T/C (dose: 12.5 mg/kg/injection, schedule: Q01DX009 (ip), vehicle: saline with Tween-80) was 95 % of control.
In the case of `COC1(OC)C(c2ccc([N+](=O)[O-])cc2)C([N+](=O)[O-])C1(OC)OC` (centres undefined), the T/C is 90 % of control under setting [1], 93 % of control under setting [2] and 89 % of control under setting [3].
As for `CO[C@@]12[C@@H]3N[C@@H]3CN1C1=C(C(=O)C(NCC3CCCO3)=C(C)C1=O)[C@@H]2COC(N)=O` (some centres undefined), the T/C is 155 % of control (dose: 1.56 mg/kg/injection, schedule: Q01DX005 (ip), vehicle: distilled water + Tween-80); 194 % of control (dose: 3.12 mg/kg/injection, schedule: Q01DX005 (ip), vehicle: distilled water + Tween-80); 198 % of control and 241 % of control (dose: 6.25 mg/kg/injection, schedule: Q01DX005 (ip), vehicle: distilled water + Tween-80); 158 % of control (dose: 12.5 mg/kg/injection, schedule: Q01DX001 (ip), vehicle: distilled water + Tween-80); 223 % of control and 225 % of control (dose: 12.5 mg/kg/injection, schedule: Q01DX005 (ip), vehicle: distilled water + Tween-80); 165 % of control (dose: 25.0 mg/kg/injection, schedule: Q01DX001 (ip), vehicle: distilled water + Tween-80). Moreover, the T/C is 100 % of control and 207 % of control (dose: 25.0 mg/kg/injection, schedule: Q01DX005 (ip), vehicle: distilled water + Tween-80); 203 % of control (dose: 50.0 mg/kg/injection, schedule: Q01DX001 (ip), vehicle: distilled water + Tween-80).
`O=C1OC(O)C(Cl)=C1Cl` (centres undefined): the T/C runs as follows: (dose: 0.79 mg/kg/injection, schedule: Q01DX005 (ip), vehicle: saline with Tween-80) 111 % of control; (dose: 1.56 mg/kg/injection, schedule: Q01DX005 (ip), vehicle: saline with Tween-80) 112 % of control; (dose: 3.12 mg/kg/injection, schedule: Q01DX005 (ip), vehicle: saline with Tween-80) 114 % of control; (dose: 6.25 mg/kg/injection, schedule: Q01DX005 (ip), vehicle: saline with Tween-80) 120 % of control.
For `O=[As]O`, the T/C (dose: 0.5 mg/kg/injection, schedule: Q01DX010 (ip), vehicle: saline with Tween-80) was 100 % of control; the T/C (dose: 1.0 mg/kg/injection, schedule: Q01DX010 (ip), vehicle: saline with Tween-80) is 109 % of control; the T/C (dose: 2.0 mg/kg/injection, schedule: Q01DX010 (ip), vehicle: saline with Tween-80) was 109 % of control.
Regarding `CCOC(=O)c1cnn(CC(OCC)OCC)c1N`, the T/C reads like this: (dose: 100.0 mg/kg/injection, schedule: Q01DX001 (ip), vehicle: saline with Tween-80) 102 % of control; (dose: 200.0 mg/kg/injection, schedule: Q01DX001 (ip), vehicle: saline with Tween-80) 108 % of control; (dose: 400.0 mg/kg/injection, schedule: Q01DX001 (ip), vehicle: saline with Tween-80) 109 % of control.
In the case of `CCCCCCCCCC[n+]1cccc(C(N)=O)c1`, the T/C runs as follows: (dose: 5.0 mg/kg/injection, schedule: Q01DX009 (ip), vehicle: saline with Tween-80) 100 % of control; (dose: 10.0 mg/kg/injection, schedule: Q01DX009 (ip), vehicle: saline with Tween-80) 109 % of control; (dose: 20.0 mg/kg/injection, schedule: Q01DX009 (ip), vehicle: saline with Tween-80) 113 % of control.
For the molecule `CNCc1nc2sc3c(c2c(=O)[nH]1)CCCC3`, the T/C was 97 % of control under setting [4], 105 % of control under setting [5] and 102 % of control under setting [6].
Turning to `NC(=S)N1CC=CCC1`, the T/C by setting is: (dose: 50.0 mg/kg/injection, schedule: Q01DX009 (ip), vehicle: Klucel (hydroxypropylcellulose) (HPC)) 99 % of control; (dose: 100.0 mg/kg/injection, schedule: Q01DX009 (ip), vehicle: Klucel (hydroxypropylcellulose) (HPC)) 101 % of control; (dose: 200.0 mg/kg/injection, schedule: Q01DX009 (ip), vehicle: Klucel (hydroxypropylcellulose) (HPC)) 101 % of control.
As for `c1ccc([P+]23OCCN2CCO3)cc1`, the T/C is 104 % of control (dose: 100.0 mg/kg/injection, schedule: Q04DX003 (ip), vehicle: saline with Tween-80); 98 % of control (dose: 200.0 mg/kg/injection, schedule: Q04DX003 (ip), vehicle: saline with Tween-80); 102 % of control (dose: 400.0 mg/kg/injection, schedule: Q04DX003 (ip), vehicle: saline with Tween-80).
On to `C=C(C)C(=O)OCCO` (tested in a mixture with another compound), for which the T/C was 100 % of control under setting [5]; 100 % of control under setting [6]; 100 % of control (dose: 400.0 mg/kg/injection, schedule: Q01DX009 (ip), vehicle: saline with Tween-80).
For `Cc1cc2n(n1)C(C)(C)C(=O)Nc1ccc(Cl)cc1-2`, the T/C reads like this: under setting [1], 96 % of control; under setting [2], 96 % of control; under setting [3], 93 % of control.
Consider `O=C(N=C(N=C(c1ccccc1)N1CCCCC1)c1ccccc1)c1ccccc1`, for which the T/C is 96 % of control under setting [4], 93 % of control under setting [5] and 95 % of control under setting [6].
`COc1cccc2c1C(=O)c1c(O)c3c(c(O)c1C2=O)C[C@@](O)(C(=O)CO)C[C@@H]3OC1CC(NCC#N)C(O)C(C)O1` (some centres undefined): the T/C reads like this: (dose: 8.0 mg/kg/injection, schedule: Q04DX003 (ip), vehicle: saline + alcohol) 153 % of control; (dose: 32.0 mg/kg/injection, schedule: Q04DX003 (ip), vehicle: saline + Tween-80 + alcohol) 108 % of control; (dose: 32.0 mg/kg/injection, schedule: Q04DX003 (ip), vehicle: saline + alcohol) 117 % of control.
With `COc1ccc2nc3c(C)c4ccn(Cc5ccc(I)cc5)cc4c(C)c3c2c1`, the T/C (dose: 13.5 mg/kg/injection, schedule: Q04DX002 (ip), vehicle: saline with Tween-80) was 116 % of control; the T/C (dose: 27.0 mg/kg/injection, schedule: Q04DX002 (ip), vehicle: saline with Tween-80) was 113 % of control; the T/C (dose: 54.0 mg/kg/injection, schedule: Q04DX002 (ip), vehicle: saline with Tween-80) is 122 % of control; the T/C (dose: 108.0 mg/kg/injection, schedule: Q04DX002 (ip), vehicle: saline with Tween-80) is 105 % of control.
In the case of `CCCCCCCCC(=O)c1c(OC)oc(/C=N/O)cc1=O`, the T/C (dose: 12.5 mg/kg/injection, schedule: Q01DX009 (ip), vehicle: Klucel (hydroxypropylcellulose) (HPC)) is 87 % of control.
For the molecule `CN1C(=O)N(C)N(Cc2ccccc2)C(=O)N1Cc1ccccc1`, the T/C under setting [1] was 97 % of control, the T/C under setting [2] is 100 % of control and the T/C under setting [3] was 96 % of control.
